According to patent publication US5334528A (priority 1989, dated 1994):
Values joined by “and” are separate entries in the source; they are usually repeats but may differ in a detail not shown here. Identical values can stand only once. Counter-ions that a name gives are not always drawn.

What follows are compounds tested on monoclonal antibody from hybridoma Hept-2.
Assay type: binding, mice

Row | SMILES | % Crossreactivity [%] | I50
1 | ClC1=C(Cl)C2(Cl)C3C4C=CC(C4)C3C1(Cl)C2(Cl)Cl (stereo not drawn) [aldrin, 1,2,3,4,10,10-Hexachloro-1,4,4a,5,8,8a hexahydro-1,4-exo, endo-5,8,-dimethanonaphthalene (HHDN)] | 100 | 1-10 ng/well
2 | Clc1cccc(Cl)c1 [1,3-diCl-Bz] | 0 | 
3 | Clc1ccccc1Cl [1,2-diCl-Bz] | 0 | 
4 | Cc1ccc(O)c(C)c1 [2,4-DiMe-phenol] | 0 | 
5 | Cc1cc(O)ccc1Cl [4-Cl-3-Me phenol] | 0 | 
6 | ClC1=C(Cl)C2(Cl)C3C4OC4C(Cl)C3C1(Cl)C2(Cl)Cl (stereo not shown) [heptachlor epoxide] | 100 | 1-10 ng/well
7 | O=S1OCC2C(CO1)C1(Cl)C(Cl)=C(Cl)C2(Cl)C1(Cl)Cl (stereo not drawn) [a-Endosulfan, alpha-endosulfan] | 43 | 
8 | Clc1ccccc1 [Chlorobenzene] | 0 | 
9 | ClC(Cl)=C(Cl)C(Cl)=C(Cl)Cl [hexa-Cl-butadiene] | 0.4 | 
10 | O=C(O)COc1ccc(Cl)cc1Cl [2,4-D] | 0 | 
11 | O=[N+]([O-])c1cc(Cl)ccc1Cl [2,5-diCl-nitroBz] | 0 | 
12 | Oc1cc(Cl)c(Cl)cc1Cl [2,4,5-triCl-phenol] | 0 | 
13 | Clc1ccc(Cl)c(Cl)c1 [1,2,4-triCl-Bz] | 0 | 
14 | O=[N+]([O-])c1ccccc1O [2-nitro-phenol] | 0 | 
15 | Oc1ccccc1 [phenol] | 0 | 
16 | O=S1OCC2C(CO1)C1(Cl)C(Cl)=C(Cl)C2(Cl)C1(Cl)Cl (stereo not shown) [Endosulfan (mix), 6,7,8,9,10,10-Hexachloro-1,5,5a,6,9,9a-hexahydro-6,9,-methano-2,4,3-benzo[e]-dioxathiepin-3-oxide] | 173 | 
17 | Oc1c(Cl)cc(Cl)cc1Cl [2,4,6-triCl-phenol] | 0 | 
18 | O=[N+]([O-])c1ccc(O)cc1 [4-nitro-phenol] | 0 | 
19 | Clc1ccc(C(c2ccc(Cl)cc2)C(Cl)(Cl)Cl)cc1 [DDT] | 0 | 

Row | SMILES | % Crossreactivity [%] | I50
20 | Clc1ccc2ccccc2c1 [2-Cl-naphthalene] | 0 | 
21 | ClC1C(Cl)C(Cl)C(Cl)C(Cl)C1Cl (stereo not shown) [Lindand (BHC), 1,2,3,4,5,6-Hexachlorocyclohexane] | 7.3 | 
22 | O=S1OCC2C(CO1)C1(Cl)C(Cl)=C(Cl)C2(Cl)C1(Cl)Cl (stereo not drawn) [β-Endosulfan, beta-endosulfan] | 250 | 
23 | Oc1cc(Cl)c(Cl)cc1O [4,5-diCl-catecol] | 0 | 
24 | Oc1c(Cl)c(Cl)c(Cl)c(Cl)c1Cl [penta-Cl-phenol] | 0 | 
25 | O=[N+]([O-])c1cc(Cl)cc(Cl)c1O [2,4-diCl-6-nitrophenol] | 0 | 
26 | Oc1ccccc1Cl [2-Cl-phenol] | 0 | 
27 | O=C(O)COc1cc(Cl)c(Cl)cc1Cl [2,4,5-triCl-phenoxyacetic acid] | 0 | 
28 | O=S1(=O)OCC2C(CO1)C1(Cl)C(Cl)=C(Cl)C2(Cl)C1(Cl)Cl (stereo not shown) [Endosulfansulfate, endosulfan sulfate] | 182 | 
29 | Oc1ccc(Cl)cc1Cl [2,4-diCl-phenol] | 0 | 
30 | ClC1=C(Cl)C2(Cl)C3C4CC(C5OC45)C3C1(Cl)C2(Cl)Cl [endrin, (1R, 4S, 5R, 8S) 1,2,3,4,10,10-hexachloro-6,7-epoxy-1,4,4a,5,6,7,8,8a-octahydro-exo-5,8,dimethano-naphthalene] | 150 | 1-10 ng/well
31 | O=[N+]([O-])c1ccc(O)c([N+](=O)[O-])c1 [2,4-dinitro-phenol] | 0.2 | 
32 | ClC(Cl)(Cl)C(Cl)(Cl)Cl [hexa-Cl-ethane] | 0 | 
33 | O=C1C2(Cl)C3(Cl)C4(Cl)C(Cl)(Cl)C5(Cl)C3(Cl)C1(Cl)C5(Cl)C24Cl (stereo not shown) [Kepone, Decachloro-octahydro-1,3,4,-metheno-2H-cyclobuta(cd) pentalen-2-one] | 5 | 
34 | Clc1ccc(Cl)cc1 [1,4-diCl-Bz] | 0 | 
35 | OCC(Cl)(Cl)Cl [2,2,2-tri-Cl-ethanol] | 0.4 | 
36 | ClC1=C(Cl)C(Cl)(Cl)C(Cl)=C1Cl [hexa-Cl-cyclopentadiene] | 1.6 | 
37 | ClC1=C(Cl)C2(Cl)C3C(Cl)C=CC3C1(Cl)C2(Cl)Cl (stereo not drawn) [heptachlor, 1,-exo-,4,5,6,7,8,8,-Heptachloro-3a,4,7,7a-tetrahydro-4,7-methanoindene] | 100 | 2-4 ng/well and 1-10 ng/well
38 | ClC1=C(Cl)C2(Cl)C3C(Cl)C(Cl)CC3C1(Cl)C2(Cl)Cl (stereo not shown) [chlordane, 2,3,4,5,6,7,8,8-Octachloro-2,3,3a,4,7,7a-hexahydro-4,7-methanoindene] | 75 | 1-10 ng/well
